Measured values taken from ChEMBL document CHEMBL5108027, “An unanticipated discovery of novel naphthalimidopropanediols as potential broad-spectrum antibacterial members” (Eur J Med Chem, 2022).
≈ marks a conversion by molar mass, not a printed value.

Tests used:
Format in all cases: functional
[1] = system: Staphylococcus aureus; test: Antibacterial activity against methicillin-resistant Staphylococcus aureus N315 measured by Muller-Hinton broth based microdilution assay
[2] = system: Enterococcus faecalis; test: Antibacterial activity against Enterococcus faecalis measured by Muller-Hinton broth based microdilution assay
[3] = system: Staphylococcus aureus; test: Antibacterial activity against Staphylococcus aureus measured by Muller-Hinton broth based microdilution assay
[4] = system: Staphylococcus aureus; test: Antibacterial activity against Staphylococcus aureus ATCC 25923 measured by Muller-Hinton broth based microdilution assay
[5] = system: Staphylococcus aureus; test: Antibacterial activity against Staphylococcus aureus ATCC 29213 measured by Muller-Hinton broth based microdilution assay
[6] = system: Klebsiella pneumoniae; test: Antibacterial activity against Klebsiella pneumoniae measured by Muller-Hinton broth based microdilution assay
[7] = system: Escherichia coli; test: Antibacterial activity against Escherichia coli measured by Muller-Hinton broth based microdilution assay
[8] = system: Pseudomonas aeruginosa; test: Antibacterial activity against Pseudomonas aeruginosa measured by Muller-Hinton broth based microdilution assay
[9] = system: Acinetobacter baumannii; test: Antibacterial activity against Acinetobacter baumannii measured by Muller-Hinton broth based microdilution assay
[10] = system: Pseudomonas aeruginosa; test: Antibacterial activity against Pseudomonas aeruginosa ATCC 27853 measured by Muller-Hinton broth based microdilution assay
[11] = system: Escherichia coli; test: Antibacterial activity against Escherichia coli ATCC 25922 measured by Muller-Hinton broth based microdilution assay

O=C1c2cccc3c(N/N=C/c4ccncc4)ccc(c23)C(=O)N1C(CO)CO
MIC [1]: 64 µg/mL (≈ 164 µM) | MIC [2]: 64 µg/mL (≈ 164 µM) | MIC [3]: 4 µg/mL (≈ 10.2 µM) | MIC [4]: 64 µg/mL (≈ 164 µM) | MIC [5]: 128 µg/mL (≈ 328 µM) | MIC [6]: 64 µg/mL (≈ 164 µM) | MIC [7]: 32 µg/mL (≈ 82 µM) | MIC [8]: 2 µg/mL (≈ 5.12 µM) | MIC [9]: 64 µg/mL (≈ 164 µM) | MIC [10]: 1 µg/mL (≈ 2.56 µM) | MIC [11]: 64 µg/mL (≈ 164 µM)

O=C1c2cccc3c(N/N=C/c4cccc(F)c4)ccc(c23)C(=O)N1C(CO)CO
MIC [1]: 32 µg/mL (≈ 78.5 µM) | MIC [2]: 32 µg/mL (≈ 78.5 µM) | MIC [3]: 16 µg/mL (≈ 39.3 µM) | MIC [4]: 64 µg/mL (≈ 157 µM) | MIC [5]: 64 µg/mL (≈ 157 µM) | MIC [6]: 2 µg/mL (≈ 4.91 µM) | MIC [7]: 64 µg/mL (≈ 157 µM) | MIC [8]: 32 µg/mL (≈ 78.5 µM) | MIC [9]: 64 µg/mL (≈ 157 µM) | MIC [10]: 32 µg/mL (≈ 78.5 µM) | MIC [11]: 64 µg/mL (≈ 157 µM)

O=C1c2cccc3c(N/N=C/c4ccc(F)cc4)ccc(c23)C(=O)N1C(CO)CO
MIC [1]: 64 µg/mL (≈ 157 µM) | MIC [2]: 64 µg/mL (≈ 157 µM) | MIC [3]: 64 µg/mL (≈ 157 µM) | MIC [4]: 32 µg/mL (≈ 78.5 µM) | MIC [5]: 4 µg/mL (≈ 9.82 µM) | MIC [6]: 32 µg/mL (≈ 78.5 µM) | MIC [7]: 64 µg/mL (≈ 157 µM) | MIC [8]: 8 µg/mL (≈ 19.6 µM) | MIC [9]: 32 µg/mL (≈ 78.5 µM) | MIC [10]: 32 µg/mL (≈ 78.5 µM) | MIC [11]: 64 µg/mL (≈ 157 µM)

O=C1c2cccc3c(N/N=C/c4cccc(O)c4)ccc(c23)C(=O)N1C(CO)CO
MIC [1]: 128 µg/mL (≈ 316 µM) | MIC [2]: 128 µg/mL (≈ 316 µM) | MIC [3]: 256 µg/mL (≈ 631 µM) | MIC [4]: 32 µg/mL (≈ 78.9 µM) | MIC [5]: 256 µg/mL (≈ 631 µM) | MIC [6]: 128 µg/mL (≈ 316 µM) | MIC [7]: 256 µg/mL (≈ 631 µM) | MIC [8]: 256 µg/mL (≈ 631 µM) | MIC [9]: 256 µg/mL (≈ 631 µM) | MIC [10]: 256 µg/mL (≈ 631 µM) | MIC [11]: 256 µg/mL (≈ 631 µM)

O=C1c2cccc3c(N/N=C/c4ccc(O)c(Br)c4)ccc(c23)C(=O)N1C(CO)CO
MIC [1]: 8 µg/mL (≈ 16.5 µM) | MIC [2]: 4 µg/mL (≈ 8.26 µM) | MIC [3]: 16 µg/mL (≈ 33 µM) | MIC [4]: 64 µg/mL (≈ 132 µM) | MIC [5]: 64 µg/mL (≈ 132 µM) | MIC [6]: 16 µg/mL (≈ 33 µM) | MIC [7]: 64 µg/mL (≈ 132 µM) | MIC [8]: 64 µg/mL (≈ 132 µM) | MIC [9]: 64 µg/mL (≈ 132 µM) | MIC [10]: 16 µg/mL (≈ 33 µM) | MIC [11]: 32 µg/mL (≈ 66.1 µM)

O=C1c2cccc3c(N/N=C/c4ccco4)ccc(c23)C(=O)N1C(CO)CO
MIC [1]: 32 µg/mL (≈ 84.3 µM) | MIC [2]: 32 µg/mL (≈ 84.3 µM) | MIC [3]: 32 µg/mL (≈ 84.3 µM) | MIC [4]: 32 µg/mL (≈ 84.3 µM) | MIC [5]: 32 µg/mL (≈ 84.3 µM) | MIC [6]: 64 µg/mL (≈ 169 µM) | MIC [7]: 32 µg/mL (≈ 84.3 µM) | MIC [8]: 32 µg/mL (≈ 84.3 µM) | MIC [9]: 32 µg/mL (≈ 84.3 µM) | MIC [10]: 16 µg/mL (≈ 42.2 µM) | MIC [11]: 64 µg/mL (≈ 169 µM)

O=C1c2cccc3c(N/N=C/c4cc(Cl)ccc4O)ccc(c23)C(=O)N1C(CO)CO
MIC [1]: 1 µg/mL (≈ 2.27 µM) | MIC [2]: 16 µg/mL (≈ 36.4 µM) | MIC [3]: 32 µg/mL (≈ 72.8 µM) | MIC [4]: 2 µg/mL (≈ 4.55 µM) | MIC [5]: 64 µg/mL (≈ 146 µM) | MIC [6]: 64 µg/mL (≈ 146 µM) | MIC [7]: 64 µg/mL (≈ 146 µM) | MIC [8]: 2 µg/mL (≈ 4.55 µM) | MIC [9]: 32 µg/mL (≈ 72.8 µM) | MIC [10]: 32 µg/mL (≈ 72.8 µM) | MIC [11]: 32 µg/mL (≈ 72.8 µM)

O=C1c2cccc3c(N/N=C/c4ccc(Cl)cc4)ccc(c23)C(=O)N1C(CO)CO
MIC [1]: 16 µg/mL (≈ 37.7 µM) | MIC [2]: 32 µg/mL (≈ 75.5 µM) | MIC [3]: 32 µg/mL (≈ 75.5 µM) | MIC [4]: 64 µg/mL (≈ 151 µM) | MIC [5]: 128 µg/mL (≈ 302 µM) | MIC [6]: 16 µg/mL (≈ 37.7 µM) | MIC [7]: 64 µg/mL (≈ 151 µM) | MIC [8]: 32 µg/mL (≈ 75.5 µM) | MIC [9]: 128 µg/mL (≈ 302 µM) | MIC [10]: 32 µg/mL (≈ 75.5 µM) | MIC [11]: 64 µg/mL (≈ 151 µM)

C=CCn1cc(/C=N/Nc2ccc3c4c(cccc24)C(=O)N(C(CO)CO)C3=O)c2ccccc21
MIC [1]: 64 µg/mL (≈ 137 µM) | MIC [2]: 64 µg/mL (≈ 137 µM) | MIC [3]: 64 µg/mL (≈ 137 µM) | MIC [4]: 16 µg/mL (≈ 34.2 µM) | MIC [5]: 32 µg/mL (≈ 68.3 µM) | MIC [6]: 4 µg/mL (≈ 8.54 µM) | MIC [7]: 32 µg/mL (≈ 68.3 µM) | MIC [8]: 128 µg/mL (≈ 273 µM) | MIC [9]: 64 µg/mL (≈ 137 µM) | MIC [10]: 64 µg/mL (≈ 137 µM) | MIC [11]: 16 µg/mL (≈ 34.2 µM)

O=C1c2cccc3c(N/N=C/c4ccc(C(F)(F)F)cc4)ccc(c23)C(=O)N1C(CO)CO
MIC [1]: 64 µg/mL (≈ 140 µM) | MIC [2]: 4 µg/mL (≈ 8.74 µM) | MIC [3]: 8 µg/mL (≈ 17.5 µM) | MIC [4]: 32 µg/mL (≈ 70 µM) | MIC [5]: 2 µg/mL (≈ 4.37 µM) | MIC [6]: 4 µg/mL (≈ 8.74 µM) | MIC [7]: 32 µg/mL (≈ 70 µM) | MIC [8]: 16 µg/mL (≈ 35 µM) | MIC [9]: 64 µg/mL (≈ 140 µM) | MIC [10]: 8 µg/mL (≈ 17.5 µM) | MIC [11]: 32 µg/mL (≈ 70 µM)

O=C1c2cccc3c(N/N=C/c4ccc(F)cc4F)ccc(c23)C(=O)N1C(CO)CO
MIC [1]: 128 µg/mL (≈ 301 µM) | MIC [2]: 128 µg/mL (≈ 301 µM) | MIC [3]: 256 µg/mL (≈ 602 µM) | MIC [4]: 32 µg/mL (≈ 75.2 µM) | MIC [5]: 16 µg/mL (≈ 37.6 µM) | MIC [6]: 128 µg/mL (≈ 301 µM) | MIC [7]: 256 µg/mL (≈ 602 µM) | MIC [8]: 256 µg/mL (≈ 602 µM) | MIC [9]: 256 µg/mL (≈ 602 µM) | MIC [10]: 256 µg/mL (≈ 602 µM) | MIC [11]: 256 µg/mL (≈ 602 µM)

O=C1c2cccc3c(N/N=C/c4ccc(O)c(Cl)c4)ccc(c23)C(=O)N1C(CO)CO
MIC [1]: 64 µg/mL (≈ 146 µM) | MIC [2]: 64 µg/mL (≈ 146 µM) | MIC [3]: 64 µg/mL (≈ 146 µM) | MIC [4]: 32 µg/mL (≈ 72.8 µM) | MIC [5]: 64 µg/mL (≈ 146 µM) | MIC [6]: 64 µg/mL (≈ 146 µM) | MIC [7]: 16 µg/mL (≈ 36.4 µM) | MIC [8]: 8 µg/mL (≈ 18.2 µM) | MIC [9]: 64 µg/mL (≈ 146 µM) | MIC [10]: 32 µg/mL (≈ 72.8 µM) | MIC [11]: 64 µg/mL (≈ 146 µM)

O=C1c2cccc3c(N/N=C/c4cccs4)ccc(c23)C(=O)N1C(CO)CO
MIC [1]: 4 µg/mL (≈ 10.1 µM) | MIC [2]: 16 µg/mL (≈ 40.5 µM) | MIC [3]: 64 µg/mL (≈ 162 µM) | MIC [4]: 64 µg/mL (≈ 162 µM) | MIC [5]: 8 µg/mL (≈ 20.2 µM) | MIC [6]: 4 µg/mL (≈ 10.1 µM) | MIC [7]: 32 µg/mL (≈ 80.9 µM) | MIC [8]: 64 µg/mL (≈ 162 µM) | MIC [9]: 64 µg/mL (≈ 162 µM) | MIC [10]: 32 µg/mL (≈ 80.9 µM) | MIC [11]: 32 µg/mL (≈ 80.9 µM)

O=C1c2cccc3c(N/N=C/c4ccccc4F)ccc(c23)C(=O)N1C(CO)CO
MIC [1]: 32 µg/mL (≈ 78.5 µM) | MIC [2]: 2 µg/mL (≈ 4.91 µM) | MIC [3]: 8 µg/mL (≈ 19.6 µM) | MIC [4]: 64 µg/mL (≈ 157 µM) | MIC [5]: 16 µg/mL (≈ 39.3 µM) | MIC [6]: 32 µg/mL (≈ 78.5 µM) | MIC [7]: 32 µg/mL (≈ 78.5 µM) | MIC [8]: 32 µg/mL (≈ 78.5 µM) | MIC [9]: 64 µg/mL (≈ 157 µM) | MIC [10]: 8 µg/mL (≈ 19.6 µM) | MIC [11]: 32 µg/mL (≈ 78.5 µM)
